Reference: article PMC8197275, “Novel Tdp1 Inhibitors Based on Adamantane Connected with Monoterpene Moieties via Heterocyclic Fragments” (Molecules, 2021)
Where two headings read alike, the source gives them in different places.

Key:
Tdp1 [1] = biological target: T1, Tdp1 (Homo sapiens, UniProt Q9NUW8); test: Tdp1 cleavage activity, fluorophore quencher-coupled DNA-biosensor, real-time; type: biochemical; design: inferred from the pET 16B vector and Ni-chelating resin purification; made in house; details: recombinant Tdp1 1.5 nM, 50 nM biosensor; read-out: IC50 (Tdp1 activity inhibition at 50%)
T1 sequence (Q9NUW8 whole entry): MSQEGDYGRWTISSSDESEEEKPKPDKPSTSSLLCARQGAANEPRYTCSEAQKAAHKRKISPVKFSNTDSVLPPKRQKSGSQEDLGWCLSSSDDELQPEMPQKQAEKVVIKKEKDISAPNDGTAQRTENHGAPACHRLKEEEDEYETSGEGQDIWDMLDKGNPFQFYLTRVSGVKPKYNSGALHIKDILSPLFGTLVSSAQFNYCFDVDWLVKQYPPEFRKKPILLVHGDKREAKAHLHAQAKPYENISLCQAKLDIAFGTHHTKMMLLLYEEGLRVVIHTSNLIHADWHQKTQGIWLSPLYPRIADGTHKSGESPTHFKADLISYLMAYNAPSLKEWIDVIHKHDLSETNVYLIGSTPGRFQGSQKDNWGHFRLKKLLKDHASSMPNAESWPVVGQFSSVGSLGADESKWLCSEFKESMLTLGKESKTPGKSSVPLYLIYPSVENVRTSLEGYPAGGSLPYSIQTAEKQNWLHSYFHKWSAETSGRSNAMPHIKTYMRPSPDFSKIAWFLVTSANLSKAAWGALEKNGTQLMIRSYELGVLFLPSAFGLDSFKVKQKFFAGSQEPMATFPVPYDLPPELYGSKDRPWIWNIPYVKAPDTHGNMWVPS
Experimental: The recombinant Tdp1 was purified to homogeneity by chromatography on Ni-chelating resin and phosphocellulose P11 as described, using plasmid pET 16B-Tdp1, kindly provided by Dr. K.W. Caldecott (University of Sussex, United Kingdom). Tdp1 activity was detected as described in the work. Briefly, we measured the fluorescence intensity after quencher removal from a fluorophore quencher–coupled DNA oligonucleotide catalyzed by Tdp1. The reaction was carried out at different concentrations of inhibitors. The control samples contained 1% DMSO. The reaction mixtures contained Tdp1 buffer (50 mM Tris-HCl pH 8.0, 50 mM NaCl, and 7 mM β-mercaptoethanol), 50 nM biosensor, and an inhibitor being tested. The reaction was started by the addition of purified Tdp1 (1.5 nM). The biosensor (5′-[FAM] AAC GTC AGGGTC TTC C [BHQ]-3′) was synthesized in the Laboratory of Biomedical Chemistry at the Institute of Chemical Biology and Fundamental Medicine (Novosibirsk, Russia).
The reactions were incubated on a POLARstar OPTIMA fluorimeter (BMG LAB-TECH, GmbH) to measure fluorescence every 55 s (ex. 485 nm/em. 520 nm) during the linear phase (here, data are from minute 0 to minute 8). The values of IC50 were determined using a six-point concentration response curve in a minimum of three independent experiments, and were calculated using MARS Data Analysis 2.0 (BMG LABTECH).

[2] = Cytotoxicity, EZ4U Cell Proliferation and Cytotoxicity Assay, HeLa; type: cell-based; details: human, HeLa cells, cervical cancer HeLa
Experimental: (§1) The cytotoxicity of compounds was investigated using HeLa (cervical cancer), SW837 and HCT-116 (colon cancers) cell lines, and the results are shown in Table 1 and Figure S2 in the Supplementary Materials. […] In general, the HeLa cell line was less sensitive to the inhibitors than the HCT-116 and SW837 cells.
(§2) The human cervical cancer HeLa cells were grown in Iscove’s modified Dulbecco’s medium (IMDM) with 40 μg/mL gentamicin, 50 IU/mL penicillin, 50 μg/mL streptomycin (MP Biomedicals), and 10% of fetal bovine serum (Biolot) in a 5% CO2 atmosphere. Human colon adenocarcinoma HCT-116, rectum adenocarcinoma SW837, and human embryo kidney HEK293A cell lines were cultured in DMEM medium (Invitrogen) supplemented with 10% fetal bovine serum (FBS) (Invitrogen), penicillin (100 units/mL), and streptomycin (100 μg/mL), at 37 °C, 5% CO2 in a humid atmosphere. After the formation of a 30–50% monolayer, the tested compounds were added to the medium. The volume of the added reagents was 1/100 of the total volume of the culture medium, and the amount of DMSO was 1% of the final volume. Control cells were grown in the presence of 1% DMSO. The cell culture was monitored for 3 days.
(§3) The cytotoxicity of the compounds to HeLa and HEK293A cell lines was examined using the EZ4U Cell Proliferation and Cytotoxicity Assay (Biomedica, Austria), according to the manufacturer’s protocols.

HCT-116 cells = test: Sensitizing of HCT-116 cells to topotecan by Tdp1 inhibitors; type: cell-based, human; details: for HCT116 CC50 of topotecan with Tdp1 inhibitor: human, 72 h
Experimental: (§4) The potential for sensitizing the cancer cell lines to topotecan using the Tdp1 inhibitors was investigated using the MTT assay. Neutralizing the enzymatic activity of Tdp1 by blocking access to its catalytic site using a small molecule should sensitize the cytotoxic potential of topotecan, since the complex of Top1 with DNA cannot be unraveled. […] Nontoxic concentrations of the adamantane derivatives (5 μM) were used for the HeLa cell line; the dose response for topotecan was measured and the corresponding CC50 values were derived, and the results are shown in Figure 4 for 20c and in Table 2 for all the derivatives.
(§5) For HeLa cells, increased cytotoxicity was seen when the adamantanes and topotecan were combined. […] The combination index (CI) for different concentrations of topotecan and 20c at 5 μM was in the range 0.49–0.82, and at 10 μM of 20c, it was 0.23–0.78. This indicates a synergistic effect of topotecan and 20c. The CI values were calculated with the CompuSyn version 1.0 software. For the HCT-116 cells, the synergistic effects of the compounds were different than for the HeLa cells. […] The CI plot at a different fraction affected (Fa) was determined for topotecan (5, 15, 150, 500 and 1500 nM) and 20g (1, 3, 10, 20 μM). The CI values for most of the combinations correspond to a synergistic effect (CI < 1, see Figure S3 in the Supplementary Materials).
as §2
(§6) The medium was removed, and the dark blue crystals of formazan were dissolved in 100 μL of isopropanol. The absorbance at 570 nm (peak) and 620 nm (baseline) was determined using a microplate reader Multiscan FC (Thermo Fisher Scientific Corporation). All concentrations were performed in triplicate. The values are given as mean ± standard deviation (S.D.) values, and all measurements were repeated three times.

[3] = Cytotoxicity, MTT test, SW837; type: cell-based; details: human, SW837 cells; colorectal SW837, 72 h MTT
Experimental: as §1, §2, §6

[4] = Cytotoxicity, MTT test, HCT-116; type: cell-based; details: human, HCT-116 cells; colorectal HCT-116, 72 h MTT
Experimental: as §1, §2, §6

HeLa cells = test: Sensitizing of HeLa cells to topotecan by Tdp1 inhibitors; type: cell-based, human; details: for HeLa CC50 of topotecan with Tdp1 inhibitor: human, 3 days, 5 µM
Experimental: as §4, §5, §2, §3

[5] = Solubility remark during biological testing; type: physicochemical; details: remark in words
Tdp1 [6] = biological target: T1, Tdp1; design: inferred from the pET 16B vector and Ni-chelating resin purification; made in house; details: cited from earlier work

SMILES | IC50 (Tdp1 [1]) [µM] | CC50 at 3 days [2] [µM] | CC50 at 72 h [3] [µM] | CC50 at 72 h [4] [µM] | HeLa CC50 of topotecan with Tdp1 inhibitor (HeLa cells) [µM] | other results
CC(C)CCCC(C)CCSc1n[nH]c(C23CC4CC(CC(C4)C2)C3)n1 (centres unmarked) [20a, 5-(Adamantan-1-yl)-3-((3,7-dimethyloctyl)thio)-1H-1,2,4-triazole] | 0.54 ± 0.09 | 85 ± 23 | 52 ± 6 | 27 ± 6 | 4.5 | HCT116 CC50 of topotecan with Tdp1 inhibitor (HCT-116 cells; 20 µM): 650.0 (20) nM
CC(C)=CCC[C@H](C)CCSc1n[nH]c(C23CC4CC(CC(C4)C2)C3)n1 [20b, 5-(Adamantan-1-yl)-3-(((S)-3,7-dimethyloct-6-en-1-yl)thio)-1H-1,2,4-triazole] | 1.5 ± 0.3 | > 100 | 41 ± 4 | > 100 | – | HCT116 CC50 of topotecan with Tdp1 inhibitor (HCT-116 cells; 20 µM): 575.3 (20) nM
CC(C)=CCC/C(C)=C\CSc1n[nH]c(C23CC4CC(CC(C4)C2)C3)n1 [20d, 5-(Adamantan-1-yl)-3-(((Z)-3,7-dimethylocta-2,6-dien-1-yl)thio)-1H-1,2,4-triazole] | 5.6 ± 0.6 | 31 ± 11 | 17 ± 5 | 20 ± 9 | 5.4 | HCT116 CC50 of topotecan with Tdp1 inhibitor (HCT-116 cells; 15 µM): 689.0 (15) nM
C=C(C)[C@@H]1CC=C(CSc2n[nH]c(C34CC5CC(CC(C5)C3)C4)n2)CC1 [20e, 5-(Adamantan-1-yl)-3-((((S)-4-(prop-1-en-2-yl)cyclohex-1-en-1-yl)methyl)thio)-1H-1,2,4-triazole] | 6.2 ± 2.2 | 24 ± 16 | 40 ± 4 | 15 ± 5 | – | HCT116 CC50 of topotecan with Tdp1 inhibitor (HCT-116 cells; 15 µM): 392.0 (15) nM
CC1(C)[C@H]2CC=C(CSc3n[nH]c(C45CC6CC(CC(C6)C4)C5)n3)[C@@H]1C2 [20f, 5-(Adamantan-1-yl)-3-((((1R,5S)-6,6-dimethylbicyclo[3.1.1]hept-2-en-2-yl)methyl)thio)-1H-1,2,4-triazole] | 7.5 ± 1.8 | 15 ± 2 | 46 ± 6 | 54 ± 5 | 2.8 | HCT116 CC50 of topotecan with Tdp1 inhibitor (HCT-116 cells; 25 µM): 715.0 (25) nM
CC(C)CCCC(C)CC(=O)Nc1nnc(C23CC4CC(CC(C4)C2)C3)s1 (centres unmarked) [25a, N-(5-(Adamantan-1-yl)-1,3,4-thiadiazol-2-yl)-3,7-dimethyloctanamide] | 0.35 ± 0.05 | > 100 | > 100 | > 100 | 4.9 | HCT116 CC50 of topotecan with Tdp1 inhibitor (HCT-116 cells; 45 µM): 455.7 (45) nM
CC(C)=CCCC(C)CC(=O)Nc1nnc(C23CC4CC(CC(C4)C2)C3)s1 (centres unmarked) [25b, N-(5-(Adamantan-1-yl)-1,3,4-thiadiazol-2-yl)-3,7-dimethyloct-6-enamide] | 2.59 ± 0.48 | > 100 | 83 ± 8 | 66 ± 6 | 2.9 | solubility [5]: poor solubility; HCT116 CC50 of topotecan with Tdp1 inhibitor (HCT-116 cells; 20 µM): 611.9 (20) nM
CC1(C)[C@H]2CC=C(C(=O)Nc3nnc(C45CC6CC(CC(C6)C4)C5)s3)[C@@H]1C2 [25c, (1R,5S)-N-(5-(Adamantan-1-yl)-1,3,4-thiadiazol-2-yl)-6,6-dimethylbicyclo[3.1.1]hept-2-ene-2-carboxamide] | 0.45 ± 0.09 | > 100 | > 100 | > 100 | 3.6 | HCT116 CC50 of topotecan with Tdp1 inhibitor (HCT-116 cells; 25 µM): 486.0 (25) nM
C=C(C)[C@@H]1CC=C(C(=O)Nc2nnc(C34CC5CC(CC(C5)C3)C4)s2)CC1 [25d, (S)-N-(5-(adamantan-1-yl)-1,3,4-thiadiazol-2-yl)-4-(prop-1-en-2-yl)cyclohex-1-ene-1-carboxamide] | – | – | – | – | – | melting point: 265.6 °C; solubility [5]: poor solubility
CC(C)CCCC(C)CC(=O)NC12CC3CC(CC(C3)C1)C2 (centres unmarked) [26a, N-(Adamantan-1-yl)-3,7-dimethyloctanamide] | > 15 | – | – | – | – | melting point: 97.9 °C
CC1(C)[C@H]2CC=C(C(=O)NC34CC5CC(CC(C5)C3)C4)[C@@H]1C2 [26c, reference compound] | > 15 | – | – | – | – | –
CC(C)CCCC(C)CCNC(=O)C12CC3CC(CC(C3)C1)C2 (centres unmarked) [28a, reference compound] | > 15 | – | – | – | – | –
CC1(C)[C@H]2CC=C(CCNC(=O)C34CC5CC(CC(C5)C3)C4)[C@@H]1C2 [28g, reference compound] | > 15 | – | – | – | – | –
CC[C@@]1(O)C(=O)OCc2c1cc1n(c2=O)Cc2cc3c(CN(C)C)c(O)ccc3nc2-1 [Topotecan, topotecan, reference compound] | – | – | – | – | – | CC50 (HCT-116 cells; Homo sapiens, HCT-116, topotecan alone, read-out: HCT116 CC50 of topotecan): 0.715 µM; CC50 (HeLa cells; Homo sapiens, HeLa, topotecan alone): 6 µM
CC(C)=CCCC(C)CC1N2CC3(C)CN1CC(C)(C2)C3=O (centres unmarked) [compound 3] | – | – | – | – | – | IC50 (Tdp1 [6]): ~15 µM
C[C@@H]1CC[C@@H]2[C@@H](C1)O[C@@H](c1ccc(NC(=O)c3cccc4ccccc34)s1)C[C@]2(C)O [compound 5] | – | – | – | – | – | IC50 (Tdp1 [6]): 2 µM
C[C@@H]1CC[C@@H]2[C@@H](C1)O[C@@H](c1ccc(NC(=O)C34CC5CC(CC(C5)C3)C4)s1)C[C@]2(C)O [compound 13] | – | – | – | – | – | IC50 (Tdp1 [6]): 1.2 µM
